Results taken from BindingDB's records for doi:10.1021/jm5008853 (University of Ferrara, 2014).
pKd: −log10 of the molar value.

Assay: Allosteric enhancer activity at human adenosine A1 receptor expressed in CHO cell membranes assessed as [3H]NECA affinity constant at 1 uM (Kd = 0.87 +/- 0.04 nM)

pKd: 9.34
Compound: CC(C)(C)Cc1c(C#Cc2ccccc2)sc(N)c1C(=O)c1ccc(Cl)cc1
